Values of other authors, collected in patent publication US10485768B2, “Treatment for glioblastoma” (SignPath Pharma Inc., priority 2015, dated 2019).

How the values were obtained:
C6 implant rat glioma = C6 implant rat glioma model
human glioma U87 cells = conditions: U87 cells xenografted into athymic mice
[1] = system: human primary and recurrent GBM cell lines

COc1cc(/C=C/C(=O)CC(=O)/C=C/c2ccc(O)c(OC)c2)ccc1O [Curcumin, diferuloylmethane]
brain tumor volume (C6 implant rat glioma): reduction in brain tumor volume
growth of xenografted tumor cells (human glioma U87 cells): suppress growth
cell growth [1]: reduced cell growth
